Key:
[1] = molecular target: SMARCA2 (Homo sapiens, UniProt P51531); assay: SMARCA2 degradation in SW1573 cells (Western blot); type: cell-based; parameters: endogenous in cells; host or cells: SW1573; conditions: 24 hours
Description: Test Example 10 Degradation rate (%) of SMARCA2/4 by the PROTAC compounds of the present invention in HeLa cells and SW1573 cells
SW1573 cells were seeded at 2x10^5Cells/well in a 6-well plate. 2 mL of EMEM medium supplemented with 10% FBS was added to each well and was incubated overnight to allow cell attachment. The next day, 1 µL of 160 µM and 1 µL of 2 µM compound were added to the corresponding wells for treatment, resulting in final compound concentrations of 80 nM and 1 nM, respectively, and a final DMSO concentration of 0.05%. The cells were returned to the incubator and incubated for another 24 hours.
(§1) After 24 hours, cells were harvested, the medium was aspirated, and the cells were rinsed once with 1 mL/well PBS. The PBS was aspirated, and 40 µL/well of RIPA lysis buffer containing protease inhibitors was added. After lysis and centrifugation, total protein extracts were obtained, and protein concentration in the extracts was determined by BCA assay. Protein electrophoresis was performed by SDS-PAGE, followed by constant voltage electrophoresis at 100 V for 60 minutes and the protein was then transferred to a PVDF membrane. The PVDF membrane was blocked in 5% skim milk powder for 1 hour at room temperature. Primary antibodies (SMARCA2: CST#11966S, SMARCA4: CST#49360S, GAPDH: CST#5174S) were added and incubated overnight at 4°C. After washing the membrane, secondary antibodies were added and incubated at room temperature for 1 hour (protected from the light). After washing, the membrane was exposed using an Odyssey luminometer. Grayscale analysis of bands was performed using Image Studio software.
(§2) The degradation rate (%) of SMARCA2/4 by the PROTAC compounds of the present invention in HeLa cells and SW1573 cells is shown in Table 10. Table 10 Degradation rate of SMARCA2/4 by PROTAC compounds of the present invention in HeLa cells and SW1573 cells (%)

[2] = molecular target: SMARCA4 (Homo sapiens, UniProt P51532); assay: SMARCA4 degradation in SW1573 cells (Western blot); type: cell-based; parameters: endogenous in cells; host or cells: SW1573; conditions: 24 hours; for Dmax at 0.001 µM / Dmax at 0.08 µM: read-out: Degradation rate of SMARCA4 in SW1573 cells (%)
SMARCA4, sequence (P51532 whole entry): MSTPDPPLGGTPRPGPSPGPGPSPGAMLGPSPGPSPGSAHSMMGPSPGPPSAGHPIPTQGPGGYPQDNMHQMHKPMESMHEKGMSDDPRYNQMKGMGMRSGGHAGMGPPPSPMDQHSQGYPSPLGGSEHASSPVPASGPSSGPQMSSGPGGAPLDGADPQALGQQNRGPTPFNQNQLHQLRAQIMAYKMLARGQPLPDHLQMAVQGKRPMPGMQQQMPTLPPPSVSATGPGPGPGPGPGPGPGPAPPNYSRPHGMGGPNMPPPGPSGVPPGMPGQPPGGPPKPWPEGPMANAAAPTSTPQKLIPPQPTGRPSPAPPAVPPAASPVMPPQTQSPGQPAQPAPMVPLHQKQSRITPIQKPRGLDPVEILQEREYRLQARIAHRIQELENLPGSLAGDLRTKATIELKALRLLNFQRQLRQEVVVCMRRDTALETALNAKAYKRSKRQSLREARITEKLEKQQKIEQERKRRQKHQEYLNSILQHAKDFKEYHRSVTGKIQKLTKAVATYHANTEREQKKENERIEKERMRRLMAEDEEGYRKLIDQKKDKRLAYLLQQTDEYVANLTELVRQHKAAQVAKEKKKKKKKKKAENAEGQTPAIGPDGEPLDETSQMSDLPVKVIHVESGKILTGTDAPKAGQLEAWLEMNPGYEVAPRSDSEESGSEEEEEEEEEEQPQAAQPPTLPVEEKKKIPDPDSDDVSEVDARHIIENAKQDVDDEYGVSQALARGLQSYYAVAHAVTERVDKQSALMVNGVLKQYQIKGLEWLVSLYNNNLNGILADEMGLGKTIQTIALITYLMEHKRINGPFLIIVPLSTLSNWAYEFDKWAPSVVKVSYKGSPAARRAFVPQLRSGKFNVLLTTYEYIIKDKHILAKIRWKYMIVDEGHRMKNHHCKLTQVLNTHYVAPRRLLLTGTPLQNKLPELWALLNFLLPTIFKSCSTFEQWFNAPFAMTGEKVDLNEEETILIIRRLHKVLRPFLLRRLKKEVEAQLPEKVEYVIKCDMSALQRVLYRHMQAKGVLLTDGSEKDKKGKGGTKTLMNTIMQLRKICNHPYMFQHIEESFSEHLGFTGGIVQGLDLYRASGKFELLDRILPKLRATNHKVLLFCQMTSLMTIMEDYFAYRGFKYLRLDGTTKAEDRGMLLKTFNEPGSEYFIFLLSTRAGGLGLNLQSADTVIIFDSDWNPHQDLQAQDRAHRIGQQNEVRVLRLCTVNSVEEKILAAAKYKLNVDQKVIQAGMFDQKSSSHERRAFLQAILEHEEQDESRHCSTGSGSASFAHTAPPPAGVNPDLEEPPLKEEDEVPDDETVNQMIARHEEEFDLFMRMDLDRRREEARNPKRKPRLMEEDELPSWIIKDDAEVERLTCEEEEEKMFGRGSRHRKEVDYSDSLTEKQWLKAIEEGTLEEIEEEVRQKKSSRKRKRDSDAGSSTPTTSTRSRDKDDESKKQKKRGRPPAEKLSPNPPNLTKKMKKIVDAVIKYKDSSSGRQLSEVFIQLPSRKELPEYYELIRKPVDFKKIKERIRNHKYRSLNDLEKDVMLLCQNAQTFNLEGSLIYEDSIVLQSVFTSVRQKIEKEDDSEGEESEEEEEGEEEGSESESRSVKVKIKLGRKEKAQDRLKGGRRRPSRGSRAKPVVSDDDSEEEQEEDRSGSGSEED
Description: SW1573 cells were seeded at 2x10^5Cells/well in a 6-well plate. 2 mL of EMEM medium supplemented with 10% FBS was added to each well and was incubated overnight to allow cell attachment. […] The cells were returned to the incubator and incubated for another 24 hours.
as §1, with “Primary antibodies (SMARCA2: CST#11966S, SMARCA4: CST#49360S, GAPDH: CST#5174S) were added and incubated overnight at 4°C.” left out
as §2

SMARCA2, sequence (P51531 whole entry): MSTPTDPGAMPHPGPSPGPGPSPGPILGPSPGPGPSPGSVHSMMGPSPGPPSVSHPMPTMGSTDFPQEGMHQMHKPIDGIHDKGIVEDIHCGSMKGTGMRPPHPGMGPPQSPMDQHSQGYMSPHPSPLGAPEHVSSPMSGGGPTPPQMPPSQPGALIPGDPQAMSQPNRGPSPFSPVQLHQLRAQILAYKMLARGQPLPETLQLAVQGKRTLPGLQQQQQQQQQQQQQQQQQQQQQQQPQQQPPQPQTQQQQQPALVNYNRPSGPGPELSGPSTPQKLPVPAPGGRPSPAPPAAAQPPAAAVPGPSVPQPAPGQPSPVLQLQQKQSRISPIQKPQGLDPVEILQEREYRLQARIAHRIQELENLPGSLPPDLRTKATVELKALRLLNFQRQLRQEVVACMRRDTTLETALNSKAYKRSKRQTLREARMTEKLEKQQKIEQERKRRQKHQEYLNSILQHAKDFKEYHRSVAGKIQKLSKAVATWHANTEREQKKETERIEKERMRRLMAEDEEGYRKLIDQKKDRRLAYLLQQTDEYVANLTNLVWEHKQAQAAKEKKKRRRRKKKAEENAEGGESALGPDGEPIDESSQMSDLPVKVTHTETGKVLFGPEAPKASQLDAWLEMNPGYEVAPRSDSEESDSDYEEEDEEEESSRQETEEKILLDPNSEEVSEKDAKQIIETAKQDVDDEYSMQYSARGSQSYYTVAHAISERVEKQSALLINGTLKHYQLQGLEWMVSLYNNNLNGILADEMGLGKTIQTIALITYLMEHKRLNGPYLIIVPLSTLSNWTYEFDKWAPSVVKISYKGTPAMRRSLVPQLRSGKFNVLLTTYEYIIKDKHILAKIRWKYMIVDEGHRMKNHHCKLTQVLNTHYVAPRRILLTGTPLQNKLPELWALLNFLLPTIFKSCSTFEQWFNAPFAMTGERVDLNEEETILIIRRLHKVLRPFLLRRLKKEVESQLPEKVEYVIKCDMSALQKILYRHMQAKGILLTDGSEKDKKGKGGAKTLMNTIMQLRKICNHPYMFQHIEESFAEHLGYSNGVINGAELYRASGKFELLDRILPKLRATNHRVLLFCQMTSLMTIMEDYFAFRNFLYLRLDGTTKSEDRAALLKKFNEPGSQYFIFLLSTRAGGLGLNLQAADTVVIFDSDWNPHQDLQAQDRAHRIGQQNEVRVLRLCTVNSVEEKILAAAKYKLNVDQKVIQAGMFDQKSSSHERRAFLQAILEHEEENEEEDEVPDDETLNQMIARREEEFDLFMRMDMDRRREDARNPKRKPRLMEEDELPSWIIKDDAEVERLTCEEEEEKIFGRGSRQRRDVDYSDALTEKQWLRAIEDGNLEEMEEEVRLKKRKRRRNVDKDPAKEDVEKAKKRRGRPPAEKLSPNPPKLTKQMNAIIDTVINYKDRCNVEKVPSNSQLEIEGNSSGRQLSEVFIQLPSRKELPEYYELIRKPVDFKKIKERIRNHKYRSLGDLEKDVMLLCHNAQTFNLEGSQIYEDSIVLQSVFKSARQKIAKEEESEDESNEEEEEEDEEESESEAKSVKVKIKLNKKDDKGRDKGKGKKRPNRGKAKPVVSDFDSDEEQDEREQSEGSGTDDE

Structure (SMILES)	Degradation rate of SMARCA2 in SW1573 cells (%) ([1]; 1 nM)	Degradation rate of SMARCA2 in SW1573 cells (%) ([1]; 80 nM)	Dmax at 0.001 µM ([2]; 1 nM) [%]	Dmax at 0.08 µM ([2]; 80 nM) [%]	Degradation rate of SMARCA4 in SW1573 cells (%) ([2]; 1 nM)	Degradation rate of SMARCA4 in SW1573 cells (%) ([2]; 80 nM)
CN(C(=O)c1ccc2c(c1)OC[C@H]1CN(C3CC4(CCC(C#Cc5cc(-c6ccccc6O)nnc5N)CC4)C3)CCN21)[C@H]1CCC(=O)NC1=O (stereo partly drawn) [SM-P-18]	16	25	-32	-34		
Nc1nnc(-c2ccccc2O)cc1C#CC1CCC2(CC1)CC(N1CCN3c4ccc(C(=O)N[C@H]5CCC(=O)NC5=O)c(F)c4OC[C@H]3C1)C2 (stereo partly drawn) [SM-P-22]	-9	28	14	4		
Cc1ncsc1-c1ccc([C@H](C)NC(=O)[C@@H]2C[C@@H](O)CN2C(=O)[C@@H](NC(=O)[C@H]2CC[C@H](CN3CC4(CCC(n5cc(-c6cc(-c7ccccc7O)nnc6N)cn5)CC4)C3)CC2)C(C)(C)C)cc1 [SMD-3040, (2S,4R)-1-((S)-2-((1R,4S)-4-((7-(4-(3-amino-6-(2-hydroxyphenyl)pyridazin-4-yl)-1H-pyrazol-1-yl)-2-azaspiro[3.5]nonan-2-yl)methyl)cyclohexane-1-carboxamido)-3,3-dimethylbutanoyl)-4-hydroxy-N-((S)-1-(4-(4-methylthiazol-5-yl)phenyl)ethyl)pyrrolidine-2-carboxamide, reference compound]	89	99			21	86
Nc1nnc(-c2ccccc2O)cc1C#CC1CCC2(CC1)CC(N1CCN3c4cc(F)c(C(=O)N[C@H]5CCC(=O)NC5=O)cc4OC[C@H]3C1)C2 (stereo partly drawn) [SM-P-6, (R)-3-(7-((3-amino-6-(2-hydroxyphenyl)pyridazin-4-yl)ethynyl)spiro[3.5]nonan-2-yl)-n-((S)-2,6-dioxopiperidin-3-yl)-9-fluoro-1,2,3,4,4a,5-hexahydrobenzo[b]pyrazi no[1,2-d][1,4]oxazine-8-carboxamide]	20	34			-30	-41
Nc1nnc(-c2ccccc2O)cc1C#CC1CCC2(CC1)CC(N1CCN3c4cc(NC5CCC(=O)NC5=O)ccc4OCC[C@H]3C1)C2 (stereo partly drawn) [SM-P-17]	12	72	-18	12		
Nc1nnc(-c2ccccc2O)cc1C#CC1CCC2(CC1)CC(N1CCC3(CC1)COc1cc(NC4CCC(=O)NC4=O)ccc1C3)C2 (stereo not drawn) [SM-P-23, 3-((1'-(7-((3-amino-6-(2-hydroxyphenyl)pyridazin-4-yl)ethynyl)spiro[3.5]nonan-2-yl)spiro[chromane-3,4'-piperidin]-7-yl)amino)piperidine-2,6-dione]	38	95	-14	93		
